The source of these data is patent US20100324285A1, “ANTIINFLAMMATORY AGENT COMPRISING 2-AMINOPHENOL OR DERIVATIVE THEREOF AS ACTIVE INGREDIENT” (priority 2006, published 2010).

The subject of one series is RBL-2H3. The series can be described thus: Degranulation reaction of basocyte (β-hexosaminidase release). Type of series: cell-based, rat. To be noted: for concentration at which inhibiting activity on degranulation was exerted: summary of Table 3. The procedure: Degranulation rate (%) and inhibition rate of degranulation (%) were calculated based on the measurements of β-hexosaminidase activity in the granules released from the cells by degranulation reaction.
Rat cancer cells from basocyte RBL-2H3(catalognumber“JCRB0023”, commercialized by Health Science Research Resources Bank of Japan Health Sciences Foundation), known to be degranulated by cross-linkage of IgE, were used after cultured in a MEM medium (commercialized by Nissui Pharmaceutical Co., Ltd.) supplemented with 10% (v/v) FCS.
The above cells were recovered from a flask by conventional trypsin-EDTA treatment, then suspended in a MEM medium supplemented with 10% (v/v) FCS to give a cell concentration of 5×10^5 cells/ml. The suspension was inoculated to a 24-well microplate in a volume of 400 μl per well, cultured in a 5% (v/v) carbon dioxide incubator for 3 to 5 hours, then admixed with 0.625 μg/ml of anti dinitrophenol (hereinafter abbreviated as “DNP”) mouse IgE (commercialized by Sigma-Aldrich, Inc., diluted by MEM medium supplied with 10% (v/v) FCS) in a volume of 100 μl per well to sensitize the cells by IgE (a final concentration of the anti DNP-IgE was 0.125 μg/ml). After the cells were cultured in the 5% (v/v) carbon dioxide incubator overnight, the supernatant was removed by suction, and then each well was washed twice with Siraganian buffer (119 mM NaCl, 5 mM KCl, 0.4 mM MgCl2, 25 mM piperazine-N,N″-bis(2-ethane sulfonic acid) (PIPES), 40 mM NaOH, pH 7.2) by 500 μl per well. After admixed with Siraganian buffer containing 0.1% bovine serum albumin (BSA), 5.6 mM glucose and 1 mM CaCl2 (hereinafter described as “BSA-containing Siraganian buffer) in a volume of 160 μl per well, the microplate was warmed at 37° C. for 15 minutes. As test samples, 2-aminophenoxazine-3-one (questiomycin A), arbutin having skin-whitening effect and oxatomide used as therapeutic agents for allergic diseases (positive control) were diluted with BSA-containing Siraganian buffer to give the concentrations shown in Table 3, any of the test samples was added by 20 μl per well, then the microplate was warmed at 37° C. for 15 minutes (wells with the test samples). The well with any of the test samples was admixed with DNP-albumin (commercialized by Sigma-Aldrich, Inc.) diluted with BSA-containing Siraganian buffer to give a concentration of 50 μg/ml by 20 μl per well, and warmed at 37° C. for 15 minutes. After the 24-well microplate was cooled on ice for 10 minutes, the supernatant was collected and 100 μl thereof was injected into a 96-well microplate to measure the β-hexosaminidase activity in the supernatant. As negative control, BL-2H3 cells were cultured and treated in the same way as the wells admixed with the test samples except for that FCS-supplemented MEM medium containing no antibody was used, and the β-hexosaminidase activity in the supernatant was measured (the well without IgE sensitization). After the supernatants were removed from some of the wells without IgE sensitization, the wells were washed twice with BSA-containing Siraganian buffer and admixed with BSA-containing Siraganian buffer by 200 μl per well. The cells were broken by twice repeating freezing at −80° C. and thawing, whole medium containing the broken cells was collected, centrifuged at 1,500 rpm for 10 minutes, and then 100 μl of the supernatant was injected into a 96-well microplate to measure the β-hexosaminidase activity of the whole granule extract.
Each well of the 96-well microplate injected with any of the supernatant from the wells with the test samples, the supernatant from the wells without IgE sensitization or the whole granule extract described above was admixed with 50 μl of citrate buffer (pH 4.5) containing 1 mM 4-nitrophenyl-N-acetyl-β-glucosaminide (PNAG) as substrate, kept at 37° C. for 1 hour, and then the reaction was stopped by adding 50 μl of 0.1 M sodium carbonate (pH 10.5). […]

Series [1] relates to Mouse melanoma cell line B16. The series can be described thus: Living cell rate of B16 cells. To be noted: mouse, 5 days. The method, then:
(§1) As control, a system with no test sample was provided. […] The amount of protein was measured by conventional Bradfordmethod and the amount of melanin per 1 mg of protein was calculated. The amount of melanin (%) was calculated according to Formula 4, and the living cell rate (%) was calculated according to Formula 5.

Series [2] has as its system Mouse melanoma cell line B16. In words: Melanin synthesis in B16 cells. The format is cell-based. To be noted: for Amount of melanin (%): 5 days, per mg protein versus control. The procedure: as §1
As control, a system with no test sample was provided. […] The amount of protein was measured by conventional Bradford method and the amount of melanin per 1 mg of protein was calculated. The amount of melanin (%) was calculated according to Formula 4.

As to `OC[C@H]1O[C@@H](Oc2ccc(O)cc2)[C@H](O)[C@@H](O)[C@@H]1O` [AB, arbutin], in the series on RBL-2H3 (Rattus norvegicus, RBL-2H3, 31.3 μM, read-out: Inhibition intensity of degranulation), the inhibition at 31.3 µM was -30 to 30%. The inhibition at 200 µM with RBL-2H3 (Rattus norvegicus, RBL-2H3, 200 μM, read-out: Inhibition intensity of degranulation) was -30 to 30%. Further, the inhibition at 500 µM in the series with RBL-2H3 (Rattus norvegicus, RBL-2H3, 500 μM, read-out: Inhibition intensity of degranulation) was -30 to 30%. Also, the inhibition at 2000 µM in the series with RBL-2H3 (Rattus norvegicus, RBL-2H3, 2000 μM, read-out: Inhibition intensity of degranulation) is -30 to 30%. In addition, the “concentration at which inhibiting activity on degranulation was exerted” value in the series with RBL-2H3 is “no inhibition activity on degranulation”.

For `O=c1cc(CO)occ1O` [Koji acid, kojic acid], the “Living cell rate (%)” value in series [1] (0.5 mM) was 93%; in series [1] (1 mM) it was 86%; in series [1] (2 mM), 73%. Also, the “Amount of melanin (%)” value in series [2] (0.5 mM) turned out to be 79%; in series [2] (1 mM), 71%; in series [2] (2 mM) it was 59%. Besides, the “inhibiting effect on melanin production in combinational use” value in series [2] (used with 2-aminophenoxsazine-3-one) is reported as “synergistically exert inhibiting effect on melanin production”.

With `O=c1[nH]c2ccccc2n1CCCN1CCN(C(c2ccccc2)c2ccccc2)CC1` [OX, oxatomide], the inhibition at 1.5 µM with RBL-2H3 (Rattus norvegicus, RBL-2H3, 1.5 μM, read-out: Inhibition intensity of degranulation) is -30 to 30%. Besides, the inhibition at 5 µM in the series on RBL-2H3 (Rattus norvegicus, RBL-2H3, 5 μM, read-out: Inhibition intensity of degranulation) is -30 to 30%. The inhibition at 23 µM in the series with RBL-2H3 (Rattus norvegicus, RBL-2H3, 23 μM, read-out: Inhibition intensity of degranulation) was in the range of 30 to 50%. The inhibition at 94 µM with RBL-2H3 (Rattus norvegicus, RBL-2H3, 94 μM, read-out: Inhibition intensity of degranulation) was no less than 50%. Further, in the series on RBL-2H3, the “concentration at which inhibiting activity on degranulation was exerted” value was no less than 23 µM.

As a reminder, the inhibition is the relative decrease from the control value, in per cent.
